Patent US20220251071A1, “METHOD TO MAKE SMALL-MOLECULE MURINE DOUBLE MINUTE 2 PROTEIN (MDM2)-DEGRADING COMPOUNDS, COMPOUNDS FORMED THEREBY, AND PHARMACEUTICAL COMPOSITIONS CONTAINING THEM” (Wisconsin Alumni Research Foundation, priority 2019, published 2022)

Assays:
[1] = system: RS4;11 cells; assay: MTT cell viability (anti-proliferation) assay; format: cell-based, human; conditions: for IC50: Homo sapiens, RS4-11, MTT assay, 48 h incubation, read-out: IC50, inhibition of growth/proliferation of RS4;11 cells; for anti-proliferation effect, rank in screen / anti-proliferation potency relative to parent MDM2 inhibitor: RS4;11 cells; for anti-proliferation effect, rank in screen: compounds tested at 100 nM; for anti-proliferation potency relative to parent MDM2 inhibitor: 20 vs 1, 32 vs (4S, 5R)-1
Method: The “MTT assay” is a colorimetric assay for assessing cellular metabolic activity. NAD(P)H-dependent cellular oxidoreductase enzymes reflect the number of viable cells present. These enzymes are capable of reducing the tetrazolium dye 3-(4,5-dimethylthiazol-2-yl)-2,5-diphenyltetrazolium bromide (“MTT”) to its insoluble formazan, which has a purple color and whose concentration is then measured spectrophotometrically. The MTT assay is conventional and well known. See, for example, Stockert et al. (2018) “Tetrazolium salts and formazan products in Cell Biology: Viability assessment, fluorescence imaging, and labeling perspectives,” Acta Histochemica 120: 159-167. As used herein, “MTT assay” refers broadly to the MTT assay itself and to the well-known variations of it that use structurally related tetrazolium salts (e.g., XTT, MTS, etc.).
(§1) The human acute leukemia RS4;11 cell line was purchased from American Type Culture Collection (ATCC Accession No. CRL-1873), and cultured in RPMI-1640 media (Corning Incorporated (USA), One Riverfront Plaza, Corning, N.Y. 14831) supplemented with 10% fetal bovine serum (FBS), 1% sodium pyruvate, 1% penicillin/streptomycin, and 10 mM HEPES at 37° C. under a humidified 5% CO2 atmosphere. The experiments were performed by using cells with 8-20 passages after purchasing.
Cells were seeded in a 96-well cell culture plate at a density of 2×10^4 cells with 90 μL cell culture media overnight. The cells were then treated with the indicated dose of compounds, respectively, and incubated at 37° C. under a humidified 5% CO2 atmosphere for 48 h. After the incubation, the cells were treated with 10 μL of MTT solution (5 mg/mL) and incubated with another 4 h, followed by the addition of 100 μL of solubilizing solution. The plate was placed on the shaker for overnight at room temperature until the formazan were entirely dissolved. The plate was scanned at 570 nm and 690 nm. The absorbance was normalized to the DMSO-treated cells, and the IC50 was calculated by non-linear regression analysis using GraphPad Prism 6 software.

[2] = target: T1, MDM2 (Homo sapiens, UniProt Q00987); assay: Western blot of MDM2 degradation and downstream proteins; format: cell-based; conditions: for MDM2 degradation at 100 nM, 20 compared with 32: identical conditions; for MDM2 degradation (Western blot): RS4;11 leukemia cells, data not shown
T1 construct: endogenous in cells; host or cells: RS4;11 (ATCC CRL-1873)
T1 sequence (Q00987 whole entry): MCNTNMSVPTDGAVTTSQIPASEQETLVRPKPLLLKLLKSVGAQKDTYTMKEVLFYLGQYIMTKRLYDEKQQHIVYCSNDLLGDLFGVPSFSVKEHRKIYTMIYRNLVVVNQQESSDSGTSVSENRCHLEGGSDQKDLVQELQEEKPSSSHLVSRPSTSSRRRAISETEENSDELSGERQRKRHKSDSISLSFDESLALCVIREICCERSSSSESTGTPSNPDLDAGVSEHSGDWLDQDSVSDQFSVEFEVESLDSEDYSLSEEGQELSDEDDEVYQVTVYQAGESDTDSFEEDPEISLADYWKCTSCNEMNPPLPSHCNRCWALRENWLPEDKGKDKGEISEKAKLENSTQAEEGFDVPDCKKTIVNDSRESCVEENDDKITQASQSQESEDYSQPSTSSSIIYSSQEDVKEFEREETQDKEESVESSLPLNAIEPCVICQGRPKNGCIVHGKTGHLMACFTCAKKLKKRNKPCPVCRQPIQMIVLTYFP
Method: as §1
Cells were treated with the indicated concentrations of compounds under the indicated time. Cells were collected and lysed with RIPA buffer (Corning) after being washed with cold PBS twice. The supernatant was collected after centrifugation at 16,000×g at 4° C. for 15 min. The protein concentration was measured with BCA (bicinchoninic acid) method. (Smith, P. K., et al. (1985) “Measurement of protein using bicinchoninic acid,” Anal. Biochem. 150(1):76-85.) The protein expressed in the whole cell lysates was identified by Western Blot. A quantity of 40 μg protein per sample was loaded and then separated by SDS-PAGE. Proteins in the gel was transferred to polyvinylidene fluoride (PVDF) membranes, then blocked with 5% non-fat milk, and probed with the primary antibodies at 4° C. overnight. The primary antibodies are as following: MDM2 (D1V2Z) (1:1000), p53 (DO-7) (1:1000), PARP (46D11) (1:1000), Caspase-3 (1:1000), and p21 Waf1/Cip 1(12D1) (1:1000), all of which were purchased from Cell Signaling Technology, Inc., 3 Trask Lane, Danvers, Mass. 01923, along with a-Tubulin (1:1000) and β-Actin (1:1000), which were purchased from R&D Systems, Inc., 614 McKinley Place NE, Minneapolis, Minn. 55413. The membrane was washed with TBS-T 3 times, and incubated with HRP-linked secondary antibodies for 1 h at room temperature, followed by washing with TBS-T. The membrane was incubated with ECL (Bio-rad) for 5 min. The protein band was visualized by using a Bio-Rad Chemi-Doc MP imaging system. The intensity of the band was measured by Image J software.

[3] = system: p53 transcriptional activity (MDM2, TP53, CDKN1A mRNA); assay: qRT-PCR of mRNA levels of p53 target genes; format: cell-based, human; conditions: RS4;11 cells, 6 h; for transcription of p53 targeted genes MDM2 and CDKN1A (p21): (4S,5R)-1 at 1 PM as printed, 32 at 100 nM
Method: Total RNA was extracted using GeneJET RNA Purification Kit (Thermo Scientific) and titrated by SYNERGY H1 Hybrid Multi-Mode Reader (BioTek) at 260 nm. 1 μg of total RNA was subjected to reverse transcription using High-Capacity cDNA Reverse Transcription Kit (appliedbiosystems). Quantitative RT-PCR was performed using PowerUp™ SYBR™ Green Master Mix (appliedbiosystems) and the amplification detected in a QuantStudio 7 Flex Real-Time PCR System (ThermoFisher Applied Biosystems).

[4] = system: RS4;11 cells; assay: Flow cytometry apoptosis, Annexin V / PI staining; format: cell-based, human; conditions: 24 h, 100 nM or 1 μM
Method: Cells were seeded in a 6 cm circular cell culture dish at a density of 5×10^6 cells. After being settled overnight, the cells were treated with the indicated concentrations of compounds for 24 h. The collected cells were double stained with FITC Annexin V and PI according to the manufacturer's protocols. The apoptosis was analyzed using a FITC Annexin V apoptosis detection kit (556547, BD Biosciences, 2350 Qume Drive, San Jose, Calif. 95131).

[5] = system: p53; conditions: xenograft tumor tissues; cited from earlier work

CCOc1cc(C(C)(C)C)ccc1C1=NC(c2ccc(Cl)cc2)C(c2ccc(Cl)cc2)N1C(=O)N1CCN(CC#Cc2cccc3c2CN(C2CCC(=O)NC2=O)C3=O)CC1 (racemic) [Compound 20, 3-(4-(3-(4-(2-(4-(tert-butyl)-2-ethoxyphenyl)-4,5-bis(4-chlorophenyl)-4,5-dihydro-1H-imidazole-1-carbonyl)piperazin-1-yl)prop-1-yn-1-yl)-1-oxoisoindolin-2-yl)piperidine-2,6-dione]
IC50 [1]: 7.2 nM
anti-proliferation effect, rank in screen [1]: most potent inhibitor of RS4;11
anti-proliferation potency relative to parent MDM2 inhibitor [1]: ~1,000 fold
MDM2 degradation at 100 nM, 20 compared with 32 ([2]; RS4;11 cells): significant degradation of MDM2 was observed
MDM2 degradation (Western blot) [2]: degrade significant amounts of MDM2

CCOc1cc(C(C)(C)C)ccc1C1=N[C@@H](c2ccc(Cl)cc2)[C@@H](c2ccc(Cl)cc2)N1C(=O)N1CCNCC1 [(4S, 5R)-1, ((4S,5R)-2-(4-(tert-butyl)-2-ethoxyphenyl)-4,5-bis(4-chlorophenyl)-4,5-dihydro-1H-imidazol-1-yl)(piperazin-1-yl)methanone]
effect on TP53 mRNA [3]: Neither MDM2 ligand (4S, 5R)-1 nor degrader 32 has any effect on TP53
transcription of p53 targeted genes MDM2 and CDKN1A (p21) [3]: upregulated

CCOc1cc(C(C)(C)C)ccc1C1=NC(c2ccc(Cl)cc2)C(c2ccc(Cl)cc2)N1C(=O)N1CCN(C(=O)CCC#Cc2cccc3c2CN(C2CCC(=O)NC2=O)C3=O)CC1 (centres unmarked) [Compound 7, 3-(4-(5-(4-(2-(4-(tert-butyl)-2-ethoxyphenyl)-4,5-bis(4-chlorophenyl)-4,5-dihydro-1H-imidazole-1-carbonyl)piperazin-1-yl)-5-oxopent-1-yn-1-yl)-1-oxoisoindolin-2-yl)piperidine-2,6-dione]
MDM2 degradation (Western blot) [2]: degrade significant amounts of MDM2

C=C1NC(=O)CCC1N1Cc2c(C#CCCCC(=O)NCC(=O)N3CCN(C(=O)N4C(c5ccc(C(C)(C)C)cc5OCC)=NC(c5ccc(Cl)cc5)C4c4ccc(Cl)cc4)CC3)cccc2C1=O (centres unmarked) [Compound 15, N-(2-(4-(2-(4-(tert-butyl)-2-ethoxyphenyl)-4,5-bis(4-chlorophenyl)-4,5-dihydro-1H-imidazole-1-carbonyl)piperazin-1-yl)-2-oxoethyl)-6-(2-(2-methylene-6-oxopiperidin-3-yl)-1-oxoisoindolin-4-yl)hex-5-ynamide]
MDM2 degradation (Western blot) [2]: degrade significant amounts of MDM2

CCOc1cc(C(C)(C)C)ccc1C1=N[C@@H](c2ccc(Cl)cc2)[C@@H](c2ccc(Cl)cc2)N1C(=O)N1CCN(CC#Cc2cccc3c2CN(C2CCC(=O)NC2=O)C3=O)CC1 (stereo partly drawn) [Compound 32, 3-(4-(3-(4-((4S,5R)-2-(4-(tert-butyl)-2-ethoxyphenyl)-4,5-bis(4-chlorophenyl)-4,5-dihydro-1H-imidazole-1-carbonyl)piperazin-1-yl)prop-1-yn-1-yl)-1-oxoisoindolin-2-yl)piperidine-2,6-dione]
apoptosis induction, Annexin V-positive cells [4]: A large number of cells were identified in Annexin V-positive quadrants
IC50 [1]: 3.2 nM
anti-proliferation effect, rank in screen [1]: most potent compound as compared to 33 and 34
anti-proliferation potency relative to parent MDM2 inhibitor [1]: ~1,000 fold
effect on TP53 mRNA [3]: Neither MDM2 ligand (4S, 5R)-1 nor degrader 32 has any effect on TP53
transcription of p53 targeted genes MDM2 and CDKN1A (p21) [3]: more significant transcriptional upregulation
MDM2 degradation on co-treatment with MDM2 ligand (4S, 5R)-1 or CRBN ligand lenalidomide ([2]; 32 at 100 nM, competitor 5 μM): significantly reduced
reversibility of MDM2 downregulation after washout ([2]; 12 h treatment, then fresh medium): reversible
MDM2 degradation on co-incubation with proteasome inhibitor MG132 ([2]; MG132 5 PM as printed): the degradation of MDM2 ceased
MDM2 and p53 protein levels ([2]; RS4;11 cells, 100 nM or 1 μM): MDM2 depleted and p53 was stabilized and upregulated
cleavage of PARP and Caspase-3 ([2]; RS4;11 cells, 100 nM or 1 μM): cleaved PARP and Caspase-3 were observed
p21 protein level ([2]; RS4;11 cells, 100 nM or 1 μM): increased level of p21
MDM2 degradation at 100 nM, 20 compared with 32 ([2]; RS4;11 cells): superior
Dmax at 0.1 µM ([2]; RS4;11 cells, 24 h, observed at 100 nM, read-out: maximal level of MDM2 degradation (Dmax)): 90%
DC50 ([2]; RS4;11 cells, 24 h incubation, read-out: concentration at which 50% MDM2 degradation was detected (DC50)): 23 nM
time after washout without return of MDM2 to pre-treatment levels ([2]; RS4;11 cells, after removal of degrader): > 48 h
time at which MDM2 degradation was first observed ([2]; RS4;11 cells, time course): 1 h
time at which cleaved PARP was observed ([2]; RS4;11 cells, time course): 6 h
MDM2 degradation (Western blot) [2]: degrade significant amounts of MDM2

CC(C)(C)C[C@@H]1N[C@@H](C(=O)N[C@H]2CC[C@H](O)CC2)[C@H](c2cccc(Cl)c2F)[C@]12C(=O)Nc1cc(Cl)ccc12 [SAR405838]
duration of p53 accumulation after a single dose [5]: only induced a few hours of p53 accumulation
